Values of other authors in Sander's compilation of Henry's law constants.
Where “and” joins values, the source holds several entries; their conditions need not be identical. Identical values can stand only once.

Assay: Henry solubility constant Hcp at 298.15 K (mol/(m3 Pa))
Details: cited value
[1] = reference: Barcelo and Hennion (1997)
[2] = reference: Burkholder et al. (2015)
[3] = reference: Burkholder et al. (2019)
[4] = reference: Barr and Newsham (1987)
[5] = reference: Fogg and Sangster (2003)
[6] = reference: Sander et al. (2011)
[7] = reference: Kuramochi et al. (2004)
[8] = reference: Horvath and Getzen (1999)
[9] = reference: Mackay et al. (1992b)
[10] = reference: Sander et al. (2006)
[11] = reference: Gaffney and Senum (1984)

COP(=O)(OC)C(O)C(Cl)(Cl)Cl (stereo not given)
Henry solubility constant Hcp [1]: 5800

C[C@@H]1CCCC[C@H]1C (relative stereo) [trans-1,2-dimethylcyclohexane]
Henry solubility constant Hcp (reference: Brockbank (2013)): 1.6e-05

ClCC(Cl)(Cl)Cl [1,1,1,2-tetrachloroethane]
Henry solubility constant Hcp (reference: Brockbank (2013)): 0.0042 | Henry solubility constant Hcp [2]: 0.0042 | Henry solubility constant Hcp [3]: 0.0042

Clc1ccc(C(c2ccc(Cl)cc2)C(Cl)(Cl)Cl)cc1 [1,1,1-trichloro-2,2-bis-(4-chlorophenyl)-ethane]
Henry solubility constant Hcp [1]: 0.0042

CC(Cl)(Cl)Cl [1,1,1-trichloroethane]
Henry solubility constant Hcp [4]: 0.00058 | Henry solubility constant Hcp (reference: Brockbank (2013)): 0.00058 | Henry solubility constant Hcp [2]: 0.0006 | Henry solubility constant Hcp [3]: 0.0006 | Henry solubility constant Hcp [5]: 0.00062 | Henry solubility constant Hcp (reference: Goldstein (1982)): 0.0022

CC(=O)C(F)(F)F [1,1,1-trifluoro-2-propanone]
Henry solubility constant Hcp [2]: 1.4 | Henry solubility constant Hcp [3]: 1.4 | Henry solubility constant Hcp [6]: 1.4

BrC(Br)C(Br)Br [1,1,2,2-tetrabromoethane]
Henry solubility constant Hcp (reference: Brockbank (2013)): 0.014 | Henry solubility constant Hcp [3]: 0.014

ClC(Cl)C(Cl)Cl [1,1,2,2-tetrachloroethane]
Henry solubility constant Hcp [4]: 0.018 | Henry solubility constant Hcp (reference: Brockbank (2013)): 0.024 | Henry solubility constant Hcp [2]: 0.023 | Henry solubility constant Hcp [3]: 0.023 | Henry solubility constant Hcp (reference: Goldstein (1982)): 0.023

ClCC(Cl)Cl [1,1,2-trichloroethane]
Henry solubility constant Hcp [4]: 0.011 | Henry solubility constant Hcp (reference: Brockbank (2013)): 0.011 | Henry solubility constant Hcp [2]: 0.011 | Henry solubility constant Hcp [3]: 0.011 | Henry solubility constant Hcp [5]: 0.012 | Henry solubility constant Hcp (reference: Goldstein (1982)): 0.012

CC(=O)C(Cl)Cl [1,1-dichloro-2-propanone]
Henry solubility constant Hcp [2]: 0.33 | Henry solubility constant Hcp [3]: 0.33

C=C(Cl)Cl [1,1-dichloroethene]
Henry solubility constant Hcp (reference: Brockbank (2013)): 0.00031 | Henry solubility constant Hcp [2]: 0.00037 | Henry solubility constant Hcp [3]: 0.00037 | Henry solubility constant Hcp [5]: 0.0004 | Henry solubility constant Hcp (reference: Goldstein (1982)): 0.00064

CC(=O)OC(C)(C)C [1,1-dimethylethyl ethanoate]
Henry solubility constant Hcp (reference: Brockbank (2013)): 0.012

Cc1ccc(C)c(C)c1C [1,2,3,4-tetramethylbenzene]
Henry solubility constant Hcp (reference: Brockbank (2013)): 0.0029

Clc1cc(Cl)c(Cl)c(Cl)c1 [1,2,3,5-tetrachlorobenzene]
Henry solubility constant Hcp (reference: Meylan and Howard (1991)): 0.0063

OCC(O)CO [1,2,3-propanetriol]
Henry solubility constant Hcp [2]: 4.7e+06 | Henry solubility constant Hcp [3]: 4.7e+06

Clc1cccc(Cl)c1Cl [1,2,3-trichlorobenzene]
Henry solubility constant Hcp (reference: Brockbank (2013)): 0.0062

ClCC(Cl)CCl [1,2,3-trichloropropane]
Henry solubility constant Hcp (reference: Brockbank (2013)): 0.033 | Henry solubility constant Hcp [2]: 0.036 | Henry solubility constant Hcp [3]: 0.036

Cc1cccc(C)c1C [1,2,3-trimethylbenzene]
Henry solubility constant Hcp (reference: Brockbank (2013)): 0.0024 | Henry solubility constant Hcp [5]: 0.0027

Brc1ccc(Br)c(Br)c1 [1,2,4-tribromobenzene]
Henry solubility constant Hcp [7]: 0.029

Cc1ccc(C)c(C)c1 [1,2,4-trimethylbenzene]
Henry solubility constant Hcp (reference: Brockbank (2013)): 0.0016 | Henry solubility constant Hcp [5]: 0.0017

CC(Cl)CCl (stereo not given) [1,2-dichloropropane]
Henry solubility constant Hcp (reference: Brockbank (2013)): 0.0034 | Henry solubility constant Hcp [2]: 0.0034 | Henry solubility constant Hcp [3]: 0.0034 | Henry solubility constant Hcp (reference: Goldstein (1982)): 0.0034 | Henry solubility constant Hcp [8]: 0.0035

CCOCCOCC [1,2-diethoxyethane]
Henry solubility constant Hcp (reference: Howard and Meylan (1997)): 0.12

COCCOC [1,2-dimethoxyethane]
Henry solubility constant Hcp (reference: Brockbank (2013)): 1.3

Cc1ccccc1C [1,2-dimethylbenzene]
Henry solubility constant Hcp (reference: Brockbank (2013)): 0.002 | Henry solubility constant Hcp [5]: 0.0024

c1ccc(CCc2ccccc2)cc1 [1,2-diphenylethane]
Henry solubility constant Hcp [9]: 0.059

CC1CO1 (stereo not given) [1,2-epoxypropane]
Henry solubility constant Hcp (reference: Goldstein (1982)): 0.052 and 0.051

OCCO [1,2-ethanediol]
Henry solubility constant Hcp [2]: 6500 | Henry solubility constant Hcp [3]: 6500

CC(O)CO (stereo not given) [1,2-propanediol]
Henry solubility constant Hcp [2]: 2700 | Henry solubility constant Hcp [3]: 2700

Cc1cc(C)cc(C)c1 [1,3,5-trimethylbenzene]
Henry solubility constant Hcp (reference: Brockbank (2013)): 0.0012

Clc1cccc(Cl)c1 [1,3-dichlorobenzene]
Henry solubility constant Hcp (reference: Brockbank (2013)): 0.0031 | Henry solubility constant Hcp [5]: 0.0034 | Henry solubility constant Hcp (reference: Goldstein (1982)): 0.0039

ClCCCCl [1,3-dichloropropane]
Henry solubility constant Hcp (reference: Brockbank (2013)): 0.012 | Henry solubility constant Hcp [2]: 0.01 | Henry solubility constant Hcp [3]: 0.01

ClC=CCCl [1,3-dichloropropene]
Henry solubility constant Hcp [1]: 2.4e-05 | Henry solubility constant Hcp (reference: Goldstein (1982)): 0.0028 | Henry solubility constant Hcp [8]: 0.0028

Cc1cccc(C)c1 [1,3-dimethylbenzene]
Henry solubility constant Hcp (reference: Brockbank (2013)): 0.0015

OCCCCO [1,4-butanediol]
Henry solubility constant Hcp [2]: 35000 | Henry solubility constant Hcp [3]: 35000

C1=CCC=CC1 [1,4-cyclohexadiene]
Henry solubility constant Hcp (reference: Brockbank (2013)): 0.0013

Brc1ccc(Br)cc1 [1,4-dibromobenzene]
Henry solubility constant Hcp [7]: 0.011

Clc1ccc(Cl)cc1 [1,4-dichlorobenzene]
Henry solubility constant Hcp (reference: Brockbank (2013)): 0.0038 | Henry solubility constant Hcp [5]: 0.0045 | Henry solubility constant Hcp (reference: Goldstein (1982)): 0.0037

ClCCCCCl [1,4-dichlorobutane]
Henry solubility constant Hcp (reference: Brockbank (2013)): 0.02

Cc1ccc(C)cc1 [1,4-dimethylbenzene]
Henry solubility constant Hcp (reference: Brockbank (2013)): 0.0014 | Henry solubility constant Hcp [5]: 0.0019 | Henry solubility constant Hcp (reference: Foster et al. (1994)): 0.0014

ClCCOCCCl [1,5-dichloro-3-oxapentane]
Henry solubility constant Hcp (reference: Brockbank (2013)): 0.48 | Henry solubility constant Hcp (reference: Goldstein (1982)): 0.46 and 0.47 | Henry solubility constant Hcp (reference: Harrison et al. (1993)): 0.37

ClCCCCCCl [1,5-dichloropentane]
Henry solubility constant Hcp (reference: Brockbank (2013)): 0.01

Nc1ccccc1Cl [1-amino-2-chlorobenzene]
Henry solubility constant Hcp (reference: Brockbank (2013)): 1.9

Nc1ccc(Cl)cc1 [1-amino-4-chlorobenzene]
Henry solubility constant Hcp (reference: Howard (1989)): 0.92

FC(F)(F)C(Cl)Br (stereo not given) [1-bromo-1-chloro-2,2,2-trifluoroethane]
Henry solubility constant Hcp [5]: 0.00056

Cc1ccc(Br)cc1 [1-bromo-4-methylbenzene]
Henry solubility constant Hcp (reference: Brockbank (2013)): 0.0036

CCCCCCCBr [1-bromoheptane]
Henry solubility constant Hcp (reference: Brockbank (2013)): 0.00022

CCCBr [1-bromopropane]
Henry solubility constant Hcp (reference: Brockbank (2013)): 0.0011

CCCCN [1-butanamine]
Henry solubility constant Hcp (reference: Brockbank (2013)): 0.54 | Henry solubility constant Hcp [2]: 0.56 | Henry solubility constant Hcp [3]: 0.56

CCCCS [1-butanethiol]
Henry solubility constant Hcp (reference: Brockbank (2013)): 0.0015

CCCCO[N+](=O)[O-] [1-butyl nitrate]
Henry solubility constant Hcp [2]: 0.01 | Henry solubility constant Hcp [3]: 0.01 | Henry solubility constant Hcp [10]: 0.01 | Henry solubility constant Hcp [6]: 0.01

C#CCC [1-butyne]
Henry solubility constant Hcp (reference: Brockbank (2013)): 0.00056

FC(F)OC(Cl)C(F)(F)F (stereo not given) [1-chloro-2,2,2-trifluoroethyl difluoromethyl ether]
Henry solubility constant Hcp [5]: 0.00024

Cc1ccc(Cl)cc1 [1-chloro-4-methylbenzene]
Henry solubility constant Hcp (reference: Brockbank (2013)): 0.0027

CCCCCl [1-chlorobutane]
Henry solubility constant Hcp (reference: Brockbank (2013)): 0.00056

CCCCCCl [1-chloropentane]
Henry solubility constant Hcp (reference: Brockbank (2013)): 0.00041

CCCCCCCCCCO [1-decanol]
Henry solubility constant Hcp (reference: Brockbank (2013)): 0.2

C=CCCCCCCCC [1-decene]
Henry solubility constant Hcp (reference: Brockbank (2013)): 8.6e-06

CCCCOCC [1-ethoxy-butane]
Henry solubility constant Hcp (reference: Brockbank (2013)): 0.0076

CCc1cccc2ccccc12 [1-ethylnaphthalene]
Henry solubility constant Hcp (reference: Brockbank (2013)): 0.02 | Henry solubility constant Hcp [9]: 0.026

CC(=O)CF [1-fluoro-2-propanone]
Henry solubility constant Hcp [2]: 0.46 | Henry solubility constant Hcp [3]: 0.46

CCCCCCCN [1-heptanamine]
Henry solubility constant Hcp (reference: Brockbank (2013)): 0.28

CCCCCCCO [1-heptanol]
Henry solubility constant Hcp (reference: Brockbank (2013)): 0.53

C=CCCCCC [1-heptene]
Henry solubility constant Hcp (reference: Brockbank (2013)): 2e-05

C#CCCCCC [1-heptyne]
Henry solubility constant Hcp (reference: Brockbank (2013)): 0.00018

CCCCCCCCCCCCCCCCO [1-hexadecanol]
Henry solubility constant Hcp (reference: Abraham (1984)): 0.35

CCCCCCN [1-hexanamine]
Henry solubility constant Hcp (reference: Brockbank (2013)): 0.35

CCCCCCO [1-hexanol]
Henry solubility constant Hcp (reference: Brockbank (2013)): 0.76

C#CCCCC [1-hexyne]
Henry solubility constant Hcp (reference: Brockbank (2013)): 0.00026

Cc1cccc(O)c1C [1-hydroxy-2,3-dimethylbenzene]
Henry solubility constant Hcp (reference: Brockbank (2013)): 6.7

Cc1ccc(O)c(C)c1 [1-hydroxy-2,4-dimethylbenzene]
Henry solubility constant Hcp (reference: Brockbank (2013)): 3.5 | Henry solubility constant Hcp (reference: Goldstein (1982)): 4.1 | Henry solubility constant Hcp (reference: Howard (1989)): 16 | Henry solubility constant Hcp (reference: Petrasek et al. (1983)): 17

Cc1ccc(C)c(O)c1 [1-hydroxy-2,5-dimethylbenzene]
Henry solubility constant Hcp (reference: Brockbank (2013)): 8.2

Cc1ccccc1O [1-hydroxy-2-methylbenzene]
Henry solubility constant Hcp (reference: Brockbank (2013)): 6.7 | Henry solubility constant Hcp [11]: 8.2 | Henry solubility constant Hcp (reference: Howard (1989)): 6.2

Cc1cc(C)cc(O)c1 [1-hydroxy-3,5-dimethylbenzene]
Henry solubility constant Hcp (reference: Brockbank (2013)): 15

Cc1cccc(O)c1 [1-hydroxy-3-methylbenzene]
Henry solubility constant Hcp (reference: Brockbank (2013)): 12 | Henry solubility constant Hcp (reference: Howard (1989)): 11

Cc1ccc(O)cc1 [1-hydroxy-4-methylbenzene]
Henry solubility constant Hcp (reference: Brockbank (2013)): 13 | Henry solubility constant Hcp [11]: 9.9 | Henry solubility constant Hcp (reference: Howard (1989)): 10

CCCCI [1-iodobutane]
Henry solubility constant Hcp (reference: Brockbank (2013)): 0.00069

CCCCCCI [1-iodohexane]
Henry solubility constant Hcp (reference: Brockbank (2013)): 0.00034

CCCI [1-iodopropane]
Henry solubility constant Hcp (reference: Brockbank (2013)): 0.0011

Cc1cccc2ccccc12 [1-methylnaphthalene]
Henry solubility constant Hcp (reference: Brockbank (2013)): 0.02 | Henry solubility constant Hcp [5]: 0.022

CCCC[N+](=O)[O-] [1-nitrobutane]
Henry solubility constant Hcp (reference: Brockbank (2013)): 0.076

CCC[N+](=O)[O-] [1-nitropropane]
Henry solubility constant Hcp (reference: Brockbank (2013)): 0.14 | Henry solubility constant Hcp [2]: 0.13 | Henry solubility constant Hcp [3]: 0.13 | Henry solubility constant Hcp [10]: 0.13 | Henry solubility constant Hcp [6]: 0.13
